Measured values taken from patent publication US11173162B2, “Bicyclic heterocycles as FGFR4 inhibitors” (Incyte Corporation, priority 2015, dated 2021).

Test system: FGFR3 enzyme
Experiment: FGFR Enzymatic Assay (FRET peptide phosphorylation), FGFR3
Type: biochemical
Details: IC50 ratio showing FGFR3 selectivity; Table 2A, pre-incubated for 4 hours
Protocol: The inhibitor potency of the exemplified compounds was measured in an enzyme assay that measures peptide phosphorylation using FRET measurements to detect product formation. Inhibitors were serially diluted in DMSO and a volume of 0.5 μL was transferred to the wells of a 384-well plate.
GraphPad prism3 was used to analyze the data.

Structure (SMILES) | FGFR1/FGFR3 | FGFR4/FGFR3
COc1cc(OC)c(F)c(N2Cc3cnc(-c4cn(C)nc4C)cc3N(Cc3ccncc3)C2=O)c1F [Example 69, 3-(2,6-difluoro-3,5-dimethoxyphenyl)-7-(1,3-dimethyl-1H-pyrazol-4-yl)-1-(pyridin-4-ylmethyl)-3,4-dihydropyrido[4,3-d]pyrimidin-2(1H)-one] | >5 | >5
COc1cc(OC)c(F)c(N2Cc3cnc(-c4cn(C)nc4C)cc3N(Cc3cnccn3)C2=O)c1F [Example 85, 3-(2,6-difluoro-3,5-dimethoxyphenyl)-7-(1,3-dimethyl-1H-pyrazol-4-yl)-1-(pyrazin-2-ylmethyl)-3,4-dihydropyrido[4,3-d]pyrimidin-2(1H)-one] | >5 | >10
COc1cc(OC)c(F)c(N2Cc3cnc(-c4cn(C)nc4C)cc3N(C(C)C)C2=O)c1F [Example 90, 3-(2,6-difluoro-3,5-dimethoxyphenyl)-7-(1,3-dimethyl-1H-pyrazol-4-yl)-1-isopropyl-3,4-dihydropyrido[4,3-d]pyrimidin-2(1H)-one] | >5 | >5
CCn1cc(CN2C(=O)N(c3c(F)c(OC)cc(OC)c3F)Cc3cnc(-c4cn(C)nc4C)cc32)cn1 [Example 39, 3-(2,6-difluoro-3,5-dimethoxyphenyl)-7-(1,3-dimethyl-1H-pyrazol-4-yl)-1-((1-ethyl-1H-pyrazol-4-yl)methyl)-3,4-dihydropyrido[4,3-d]pyrimidin-2(1H)-one] | >10 | >10
COc1cc(OC)c(F)c(N2Cc3cnc(-c4cn(C)nc4C)cc3N(CC3CC3)C2=O)c1F [Example 29, 1-(cyclopropylmethyl)-3-(2,6-difluoro-3,5-dimethoxyphenyl)-7-(1,3-dimethyl-1H-pyrazol-4-yl)-3,4-dihydropyrido[4,3-d]pyrimidin-2(1H)-one] | >1 | >5
COc1cc(OC)c(F)c(N2Cc3cnc(-c4cn(C)nc4C)cc3N(CCc3cnn(C)c3)C2=O)c1F [Example 114, 3-(2,6-difluoro-3,5-dimethoxyphenyl)-7-(1,3-dimethyl-1H-pyrazol-4-yl)-1-(2-(1-methyl-1H-pyrazol-4-yl)ethyl)-3,4-dihydropyrido[4,3-d]pyrimidin-2(1H)-one] | >3 | >5
CCn1cc(-c2cc3c(cn2)CN(c2c(F)c(OC)cc(OC)c2F)C(=O)C32CC2)c(C)n1 [Example 158, 2′-(2,6-difluoro-3,5-dimethoxyphenyl)-6′-(1-ethyl-3-methyl-1H-pyrazol-4-yl)-1′H-spiro[cyclopropane-1,4′-[2,7]naphthyridin]-3′(2′H)-one] | >5 | >3
CCc1cc(CN2C(=O)N(c3c(F)c(OC)cc(OC)c3F)Cc3cnc(-c4cn(C)nc4C)cc32)no1 [Example 64, 3-(2,6-difluoro-3,5-dimethoxyphenyl)-7-(1,3-dimethyl-1H-pyrazol-4-yl)-1-((5-ethylisoxazol-3-yl)methyl)-3,4-dihydropyrido[4,3-d]pyrimidin-2(1H)-one] | >10 | >10
COc1cc(OC)c(F)c(N2Cc3cnc(-c4cn(C)nc4C)cc3N(c3ncccn3)C2=O)c1F [Example 105, 3-(2,6-difluoro-3,5-dimethoxyphenyl)-7-(1,3-dimethyl-1H-pyrazol-4-yl)-1-(pyrimidin-2-yl)-3,4-dihydropyrido[4,3-d]pyrimidin-2(1H)-one] | >3 | >5
COc1ccc(CN2C(=O)N(c3c(F)c(OC)cc(OC)c3F)Cc3cnc(-c4cn(C)nc4C)cc32)cn1 [Example 59, 3-(2,6-difluoro-3,5-dimethoxyphenyl)-7-(1,3-dimethyl-1H-pyrazol-4-yl)-1-((6-methoxypyridin-3-yl)methyl)-3,4-dihydropyrido[4,3-d]pyrimidin-2(1H)-one] | >10 | >10
CCn1cnc(-c2cc3c(cn2)CN(c2c(F)c(OC)cc(OC)c2F)C(=O)C32CC2)c1 [Example 53, 2′-(2,6-difluoro-3,5-dimethoxyphenyl)-6′-(1-ethyl-1H-imidazol-4-yl)-1′H-spiro[cyclopropane-1,4′-[2,7]naphthyridin]-3′(2′H)-one] | >5 | >5
COc1cc(OC)c(F)c(N2Cc3cnc(-c4cn(C)nc4C)cc3N(c3cnc(C)cn3)C2=O)c1F [Example 107, 3-(2,6-difluoro-3,5-dimethoxyphenyl)-7-(1,3-dimethyl-1H-pyrazol-4-yl)-1-(5-methylpyrazin-2-yl)-3,4-dihydropyrido[4,3-d]pyrimidin-2(1H)-one] | >3 | >10
COc1cc(OC)c(F)c(N2Cc3cnc(-c4cnn(CCCN5CCOCC5)c4)cc3C3(CC3)C2=O)c1F [Example 151, 2′-(2,6-difluoro-3,5-dimethoxyphenyl)-6′-(1-(3-morpholinopropyl)-1H-pyrazol-4-yl)-1′H-spiro[cyclopropane-1,4′-[2,7]naphthyridin]-3′(2′H)-one] | >5 | >5
COc1cc(OC)c(F)c(N2Cc3cnc(-c4cn(C)nc4C)cc3N(C3CCCC3)C2=O)c1F [Example 32, 1-cyclopentyl-3-(2,6-difluoro-3,5-dimethoxyphenyl)-7-(1,3-dimethyl-1H-pyrazol-4-yl)-3,4-dihydropyrido[4,3-d]pyrimidin-2(1H)-one] | >1 | >5
COc1cc(OC)c(F)c(N2Cc3cnc(-c4cn(C)nc4C)cc3N(c3cncc(C)n3)C2=O)c1F [Example 87, 3-(2,6-difluoro-3,5-dimethoxyphenyl)-7-(1,3-dimethyl-1H-pyrazol-4-yl)-1-(6-methylpyrazin-2-yl)-3,4-dihydropyrido[4,3-d]pyrimidin-2(1H)-one] | >5 | >10
COc1cc(OC)c(F)c(N2Cc3cnc(-c4cn(CCN(C)C)nc4C)cc3C3(CC3)C2=O)c1F [Example 164, 2′-(2,6-difluoro-3,5-dimethoxyphenyl)-6′-(1-(2-(dimethylamino)ethyl)-3-methyl-1H-pyrazol-4-yl)-1′H-spiro[cyclopropane-1,4′-[2,7]naphthyridin]-3′(2′H)-one] | >3 | >3
COc1cc(OC)c(F)c(N2Cc3cnc(-c4cnn(CCN5CCC(OC)C5)c4)cc3C3(CC3)C2=O)c1F (stereo not shown) [Example 161, 2′-(2,6-difluoro-3,5-dimethoxyphenyl)-6′-(1-(2-(3-methoxypyrrolidin-1-yl)ethyl)-1H-pyrazol-4-yl)-1′H-spiro[cyclopropane-1,4′-[2,7]naphthyridin]-3′(2′H)-one] | >5 | >3
COc1cccc(N2C(=O)N(c3c(F)c(OC)cc(OC)c3F)Cc3cnc(-c4cn(C)nc4C)cc32)c1 [Example 109, 3-(2,6-difluoro-3,5-dimethoxyphenyl)-7-(1,3-dimethyl-1H-pyrazol-4-yl)-1-(3-methoxyphenyl)-3,4-dihydropyrido[4,3-d]pyrimidin-2(1H)-one] | >3 | >10
COc1cc(OC)c(F)c(N2Cc3cnc(-c4cn(C)nc4C)cc3N(Cc3nnc(C)o3)C2=O)c1F [Example 46, 3-(2,6-difluoro-3,5-dimethoxyphenyl)-7-(1,3-dimethyl-1H-pyrazol-4-yl)-1-[(5-methyl-1,3,4-oxadiazol-2-yl)methyl]-3,4-dihydropyrido[4,3-d]pyrimidin-2(1H)-one] | >10 | >10
COc1cc(OC)c(F)c(N2Cc3cnc(-c4cn(C)nc4C)cc3N(c3ccc(C(=O)N(C)C)cc3)C2=O)c1F [Example 113, 4-(3-(2,6-difluoro-3,5-dimethoxyphenyl)-7-(1,3-dimethyl-1H-pyrazol-4-yl)-2-oxo-3,4-dihydropyrido[4,3-d]pyrimidin-1(2H)-yl)-N,N-dimethylbenzamide] | >3 | >5
COc1cc(OC)c(F)c(N2Cc3cnc(-c4cnn(CC5CN(S(C)(=O)=O)C5)c4)cc3C3(CC3)C2=O)c1F [Example 166, 2′-(2,6-difluoro-3,5-dimethoxyphenyl)-6′-(1-((1-(methylsulfonyl)azetidin-3-yl)methyl)-1H-pyrazol-4-yl)-1′H-spiro[cyclopropane-1,4′-[2,7]naphthyridin]-3′(2′H)-one] | >3 | >3
COc1cc(OC)c(F)c(N2Cc3cnc(-c4cn(C)nc4C)cc3N(Cc3ccccn3)C2=O)c1F [Example 94, 3-(2,6-difluoro-3,5-dimethoxyphenyl)-7-(1,3-dimethyl-1H-pyrazol-4-yl)-1-(pyridin-2-ylmethyl)-3,4-dihydropyrido[4,3-d]pyrimidin-2(1H)-one] | >5 | >10
COc1cc(OC)c(F)c(N2Cc3cnc(-c4cn(C)nc4C)cc3N(c3ccc(F)c(F)c3)C2=O)c1F [Example 102, 3-(2,6-difluoro-3,5-dimethoxyphenyl)-1-(3,4-difluorophenyl)-7-(1,3-dimethyl-1H-pyrazol-4-yl)-3,4-dihydropyrido[4,3-d]pyrimidin-2(1H)-one] | >3 | >10
COc1cc(OC)c(F)c(N2Cc3cnc(-c4cn(C)nc4C)cc3N(c3ccncn3)C2=O)c1F [Example 45, 3-(2,6-difluoro-3,5-dimethoxyphenyl)-7-(1,3-dimethyl-1H-pyrazol-4-yl)-1-pyrimidin-4-yl-3,4-dihydropyrido[4,3-d]pyrimidin-2(1H)-one] | >10 | >10
COc1cc(OC)c(F)c(N2Cc3cnc(-c4cnn(C5CCN(C(C)=O)C5)c4)cc3C3(CC3)C2=O)c1F (stereo not shown) [Example 150, 6′-(1-(1-acetylpyrrolidin-3-yl)-1H-pyrazol-4-yl)-2′-(2,6-difluoro-3,5-dimethoxyphenyl)-1′H-spiro[cyclopropane-1,4′-[2,7]naphthyridin]-3′(2′H)-one] | >5 | >5
COc1cc(OC)c(F)c(N2Cc3cnc(-c4cn(C)nc4C)cc3N(Cc3ccncn3)C2=O)c1F [Example 65, 3-(2,6-difluoro-3,5-dimethoxyphenyl)-7-(1,3-dimethyl-1H-pyrazol-4-yl)-1-(pyrimidin-4-ylmethyl)-3,4-dihydropyrido[4,3-d]pyrimidin-2(1H)-one] | >5 | >10
